Test results as given in PubChem BioAssay (NCI).
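In this assay, cells in 96-well plates receive the compound at five concentrations for 48 hours. Endpoints are linearly interpolated between the surrounding concentrations. GI50 = concentration required for 50% inhibition of growth. Definition used: TGI = concentration required for complete inhibition of growth.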

Legend:
Experiment in all cases: NCI tumour cell line growth inhibition, 48 h; in the data active = GI50 below about 0.43 µM; inactive = the rest
[1] = system: 786-0 renal
[2] = system: A498 renal
[3] = system: A549 NSCLC
[4] = system: ACHN renal
[5] = system: BT-549 breast
[6] = system: CAKI-1 renal
[7] = system: CCRF-CEM leukemia
[8] = system: COLO 205 colon
[9] = system: DU-145 prostate
[10] = system: EKVX NSCLC
[11] = system: HCC-2998 colon
[12] = system: HCT-116 colon
[13] = system: HCT-15 colon
[14] = system: HL-60(TB) leukemia
[15] = system: HOP-62 NSCLC
[16] = system: HOP-92 NSCLC
[17] = system: HS 578T breast
[18] = system: HT29 colon
[19] = system: IGROV1 ovarian
[20] = system: K-562 leukemia
[21] = system: KM12 colon
[22] = system: MALME-3M melanoma
[23] = system: MCF7 breast
[24] = system: MDA-MB-231 breast
[25] = system: MDA-MB-435
[26] = system: MOLT-4 leukemia
[27] = system: NCI-H226 lung
[28] = system: NCI-H460 lung
[29] = system: NCI-H522 lung
[30] = system: NCI/ADR-RES ovarian
[31] = system: OVCAR-3 ovarian
[32] = system: OVCAR-4 ovarian
[33] = system: OVCAR-5 ovarian
[34] = system: OVCAR-8 ovarian
[35] = system: PC-3 prostate
[36] = system: RPMI-8226 leukemia
[37] = system: SF-268 CNS
[38] = system: SF-295 CNS
[39] = system: SF-539 CNS
[40] = system: SK-MEL-2 melanoma
[41] = system: SK-MEL-28 melanoma
[42] = system: SK-MEL-5 melanoma
[43] = system: SK-OV-3 ovarian
[44] = system: SN12C renal
[45] = system: SNB-19 CNS
[46] = system: SNB-75 CNS
[47] = system: SR leukemia
[48] = system: SW-620 colon
[49] = system: T-47D breast
[50] = system: TK-10 renal
[51] = system: U251 CNS
[52] = system: UACC-257 melanoma
[53] = system: UACC-62 melanoma

Fc1ccc(-c2cc3nc(C(Cl)Cl)nc(-c4ccc(Cl)cc4)n3n2)cc1
5.84 µM: TGI [9]
4.36 µM: TGI [51]
4.05 µM: TGI [8]
14.1 µM: TGI [10]
53.1 µM: TGI [2]
4.69 µM: TGI [28]
> 100 µM: TGI [1] | TGI [5] | TGI [6] | TGI [7] | TGI [12] | TGI [13] | TGI [14] | TGI [15] | TGI [16] | TGI [17] | TGI [19] | TGI [20] | TGI [21] | TGI [22] | TGI [23] | TGI [24] | TGI [25] | TGI [26] | TGI [27] | TGI [29] | TGI [30] | TGI [32] | TGI [33] | TGI [34] | TGI [35] | TGI [36] | TGI [37] | TGI [39] | TGI [40] | TGI [41] | TGI [42] | TGI [43] | TGI [44] | TGI [45] | TGI [46] | TGI [47] | TGI [48] | TGI [49] | TGI [50] | TGI [52] | TGI [53]
3.14 µM: TGI [11]
4.53 µM: TGI [3]
4.03 µM: TGI [4]
9.71 µM: TGI [38]
5.36 µM: TGI [18]
4.5 µM: TGI [31]
inactive: GI50 [1] 23.5 µM | GI50 [2] 4.95 µM | GI50 [3] 1.8 µM | GI50 [4] 1.6 µM | GI50 [5] 94.7 µM | GI50 [6] 2.96 µM | GI50 [7] > 100 µM | GI50 [8] 1.84 µM | GI50 [9] 1.91 µM | GI50 [10] 2.94 µM | GI50 [11] 1.54 µM | GI50 [12] 3.3 µM | GI50 [13] 2.5 µM | GI50 [14] 2 µM | GI50 [15] 2.53 µM | GI50 [16] 4.66 µM | GI50 [17] > 100 µM | GI50 [18] 1.66 µM | GI50 [19] > 100 µM | GI50 [20] 4.39 µM | GI50 [21] 3.01 µM | GI50 [22] > 100 µM | GI50 [23] 2.45 µM | GI50 [24] 4.08 µM | GI50 [25] 6.6 µM | GI50 [26] 4.25 µM | GI50 [27] > 100 µM | GI50 [28] 1.76 µM | GI50 [29] 3.72 µM | GI50 [30] 3.32 µM | GI50 [31] 2.02 µM | GI50 [32] 3.11 µM | GI50 [33] 3.92 µM | GI50 [34] 4.03 µM | GI50 [35] 3.96 µM | GI50 [36] 4.55 µM | GI50 [37] 5.09 µM | GI50 [38] 3.04 µM | GI50 [39] 11.3 µM | GI50 [40] > 100 µM | GI50 [41] 8.28 µM | GI50 [42] > 100 µM | GI50 [43] 3.23 µM | GI50 [44] > 100 µM | GI50 [45] 2.96 µM | GI50 [46] > 100 µM | GI50 [47] 3.01 µM | GI50 [48] 2.91 µM | GI50 [49] 3.91 µM | GI50 [50] 7.6 µM | GI50 [51] 1.79 µM | GI50 [52] > 100 µM | GI50 [53] > 100 µM
